Results on ten compounds are retold here after ChEMBL document CHEMBL1201862, “PubChem BioAssay data set” (2004).

Some test systems named below: U-251; A549; NCI-H23; SN12C; DU-145; MOLT-4; SNB-19; RPMI-8226; TK-10; 786-0; LOX IMVI; IGROV-1; UACC-257; SF-295; M14; SW-620; SR; K562; MDA-MB-231; NCI-H522.
Holding throughout (test): NCI anticancer screen, dose series, 48 h

The structures appear in SMILES notation.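 Exposure lasted 48 hours, with cells grown in 96-well plates and compounds tested at five concentrations. GI50 is the concentration that inhibits growth by half.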 Calls of active or inactive are those of the source. Rule as the data show it: active = GI50 up to about 1.1 µM and inactive = higher. Where only a bound is given, the exact number is not on record here.

In the case of `COc1cc2c(cc1O)CCN[C@@]21CS[C@H]2c3c(OC(C)=O)c(C)c4c(c3C(COC1=O)N1C2C2c3c(cc(C)c(OC)c3O)CC([C@@H]1O)N2C)OCO4` (stereo not given in full), the GI50 was 0.0001 µM (active) in the assay with U-251; < 0.0001 µM (active) in the assay on A549; < 0.0001 µM (active) with NCI-H23; < 0.0001 µM (active) in the assay on SN12C; < 0.0001 µM (active) with DU-145; < 0.0001 µM (active) with MOLT-4. The GI50 in the assay with SNB-19 is < 0.0001 µM (active); in the assay with RPMI-8226, 0.00191 µM (active); in the assay with TK-10, < 0.0001 µM (active); in the assay on 786-0, 0.0001 µM (active); in the assay on LOX IMVI it was < 0.0001 µM (active); with IGROV-1, < 0.0001 µM (active). In addition, the GI50 with UACC-257 was < 0.0001 µM (active); in the assay on SF-295, < 0.0001 µM (active); in the assay on M14, < 0.0001 µM (active); in the assay with SW-620, < 0.0001 µM (active); with SR, < 1e-06 µM (active); in the assay on K562, 0.000324 µM (active). The GI50 in the assay with MDA-MB-231 and in the assay with NCI-H522 was < 0.0001 µM (active) throughout.

For `Nc1ncnc2c1ncn2C1CC(O)C(CO)O1` (stereo not given), the GI50 in the assay with U-251, with A549, in the assay with NCI-H23, in the assay with SN12C, in the assay with DU-145 and in the assay with MOLT-4 was > 100 µM (inactive) throughout. In addition, the GI50 in the assay with SNB-19, in the assay with RPMI-8226, with TK-10, with 786-0, in the assay with LOX IMVI and in the assay on IGROV-1 was > 100 µM (inactive) throughout. Moreover, the GI50 in the assay with UACC-257, in the assay with SF-295, with M14, in the assay with SW-620, in the assay with SR and in the assay on K562 was > 100 µM (inactive) throughout. Also, the GI50 in the assay with MDA-MB-231 and in the assay with NCI-H522 was > 100 µM (inactive) each time.

On to `c1ccc(C2=NC3OC2c2ccccc23)cc1` (stereo not given), for which the GI50 with U-251, in the assay on A549, in the assay with NCI-H23, in the assay on SN12C, in the assay with DU-145 and in the assay with MOLT-4 was > 10 µM (inactive) in each case. Further, the GI50 in the assay with SNB-19, with RPMI-8226, with TK-10, in the assay with 786-0, in the assay with LOX IMVI and in the assay with IGROV-1 was > 10 µM (inactive) in each case. Further, the GI50 in the assay with UACC-257, in the assay on SF-295, in the assay with M14, in the assay on SW-620, in the assay with SR and with K562 was > 10 µM (inactive) throughout. Also, the GI50 in the assay with MDA-MB-231 and with NCI-H522 was > 10 µM (inactive) each time.

On to `Nc1ccc(C(=O)N2CCC[C@H]2CO)c(N)c1`, for which the GI50 in the assay on U-251, in the assay with A549, with NCI-H23, in the assay with SN12C, in the assay on DU-145 and with MOLT-4 was > 100 µM (inactive) in each case. The GI50 in the assay on SNB-19, with RPMI-8226, with TK-10, in the assay on 786-0, in the assay on LOX IMVI and in the assay with IGROV-1 was > 100 µM (inactive) throughout. The GI50 in the assay with UACC-257, in the assay on SF-295, in the assay with M14, with SW-620, with SR and with K562 was > 100 µM (inactive) throughout. Also, the GI50 in the assay with MDA-MB-231 and with NCI-H522 was > 100 µM (inactive) in each case.

Take `COC(=O)CC1(O)C=CC(=O)C=C1` [JACARANONE]: the GI50 in the assay on U-251 was 3.52 µM (inactive); in the assay on A549, 8.67 µM (inactive); with NCI-H23 it was 2.96 µM (inactive); with SN12C, 9.31 µM (inactive); with DU-145, 5.06 µM (inactive); with MOLT-4 it was 1.05 µM (active). The GI50 in the assay on SNB-19 is 5.48 µM (inactive); with RPMI-8226, 5.45 µM (inactive); with TK-10, 4.81 µM (inactive); with 786-0, 2.88 µM (inactive); with LOX IMVI, 2.51 µM (inactive); with IGROV-1, 2.02 µM (inactive). Besides, the GI50 with UACC-257 was 2.65 µM (inactive); with SF-295, 5.13 µM (inactive); in the assay with M14 it was 4.18 µM (inactive); with SW-620, 4.76 µM (inactive); in the assay with SR, 2.47 µM (inactive); in the assay with K562, 3.76 µM (inactive). The GI50 was 2.66 µM (inactive) with MDA-MB-231 and 1.39 µM (inactive) in the assay with NCI-H522.

`CSC1=NN=C(SC)NN1`: the GI50 in the assay on U-251 was 0.18 µM (active); in the assay on A549, 0.204 µM (active); in the assay on NCI-H23, 0.285 µM (active); in the assay with SN12C it was 0.18 µM (active); in the assay with DU-145, 0.202 µM (active); in the assay with MOLT-4 it was 0.027 µM (active). Besides, the GI50 in the assay on SNB-19 was 0.191 µM (active); in the assay with RPMI-8226, 0.261 µM (active); with TK-10, 0.213 µM (active); in the assay on 786-0, 0.182 µM (active); in the assay on LOX IMVI, 0.15 µM (active); in the assay on IGROV-1, 0.166 µM (active). The GI50 in the assay with UACC-257 was 0.131 µM (active); with SF-295 it was 0.198 µM (active); in the assay with M14 it was 0.184 µM (active); in the assay on SW-620, 0.17 µM (active); in the assay with SR, 0.0204 µM (active); in the assay on K562, 0.117 µM (active). Also, the GI50 with MDA-MB-231 is 0.22 µM (active); with NCI-H522, 0.214 µM (active).

Regarding `NC(Cc1ccccc1)C(=O)OCN1C(=O)C2C3C=CC(C2C1=O)C1C(=O)N(COC(=O)C(N)Cc2ccccc2)C(=O)C31` (stereo not given), the GI50 in the assay with U-251 is > 100 µM (inactive); in the assay with A549, > 100 µM (inactive); in the assay on NCI-H23, 66.2 µM (inactive); in the assay with SN12C, > 100 µM (inactive); in the assay on DU-145, > 100 µM (inactive); in the assay with MOLT-4 it was 22.4 µM (inactive). Besides, the GI50 in the assay on SNB-19 was > 100 µM (inactive); in the assay with RPMI-8226, 23.2 µM (inactive); in the assay with TK-10, > 100 µM (inactive); in the assay on 786-0, 35.7 µM (inactive); in the assay on LOX IMVI it was 22 µM (inactive); with IGROV-1 it was > 100 µM (inactive). The GI50 in the assay with UACC-257 is 75.2 µM (inactive); in the assay with SF-295, > 100 µM (inactive); in the assay on M14, 92 µM (inactive); in the assay on SW-620, 28.8 µM (inactive); with SR, 24.4 µM (inactive); with K562 it was 28.5 µM (inactive). Besides, the GI50 in the assay with MDA-MB-231 is 78 µM (inactive); with NCI-H522, > 100 µM (inactive).

Regarding `O=C(CNc1nccs1)Nn1cnc2ccc(S(=O)(=O)Nc3nccs3)cc2c1=O`, the GI50 in the assay on U-251, with A549, with NCI-H23, in the assay with SN12C, in the assay with DU-145 and in the assay with MOLT-4 was > 100 µM (inactive) throughout. The GI50 in the assay with SNB-19, in the assay on RPMI-8226, in the assay with TK-10, in the assay with 786-0, in the assay on LOX IMVI and with IGROV-1 was > 100 µM (inactive) throughout. In addition, the GI50 with UACC-257 was > 100 µM (inactive); in the assay on SF-295, > 100 µM (inactive); in the assay with M14 it was > 100 µM (inactive); in the assay with SW-620, > 100 µM (inactive); in the assay on SR, 35.6 µM (inactive); in the assay with K562, > 100 µM (inactive). The GI50 with MDA-MB-231 and with NCI-H522 was > 100 µM (inactive) each time.

`COc1ccc(OC2OC(CO)C(O)C(O)C2O)cc1` (stereo not given): the GI50 with U-251, with A549, with NCI-H23, in the assay on SN12C, with DU-145 and in the assay on MOLT-4 was > 100 µM (inactive) throughout. Also, the GI50 in the assay with SNB-19, in the assay on RPMI-8226, in the assay with TK-10, in the assay with 786-0, with LOX IMVI and with IGROV-1 was > 100 µM (inactive) throughout. Further, the GI50 in the assay on UACC-257, in the assay with SF-295, in the assay on M14, in the assay with SW-620, with SR and with K562 was > 100 µM (inactive) in each case. The GI50 with MDA-MB-231 and with NCI-H522 was > 100 µM (inactive) each time.

Consider `Cc1c2ccncc2c(C)c2c1sc1ccccc12`, for which the GI50 with U-251 was 10.8 µM (inactive); in the assay on A549 it was 4.33 µM (inactive); with NCI-H23, 8.2 µM (inactive); in the assay with SN12C it was 9.38 µM (inactive); in the assay on DU-145, 13.3 µM (inactive); with MOLT-4 it was 2.33 µM (inactive). The GI50 in the assay on SNB-19 was 9.4 µM (inactive); in the assay with RPMI-8226, 6.87 µM (inactive); in the assay with TK-10 it was 16.9 µM (inactive); in the assay with 786-0 it was 4.86 µM (inactive); in the assay with LOX IMVI, 6.18 µM (inactive); in the assay with IGROV-1 it was 5.94 µM (inactive). Also, the GI50 with UACC-257 was 19.3 µM (inactive); in the assay on SF-295 it was 10.1 µM (inactive); in the assay with M14, 11.6 µM (inactive); in the assay on SW-620 it was 7.06 µM (inactive); with SR it was 2.19 µM (inactive); with K562, 6.5 µM (inactive). Moreover, the GI50 in the assay with MDA-MB-231 was 16.5 µM (inactive); in the assay with NCI-H522 it was 5.41 µM (inactive).
